Activity calls are given as the source filed them. The calls are words filed in the database; no cut-off is given here.
What was measured:
L5178Y [1] = test: Comparative inhibition of L5178Y cell growth in vitro (concentration required for 50% inhibition); type: functional, cell-based; conditions: Mus musculus
L5178Y [2] = test: In vitro percent inhibition at 10 e-8 M against L5178Y cell growth after 72 hr (replicate flasks inoculated with 10 e5 cells were treated with the nucleotide); type: functional; conditions: Mus musculus
[3] = biological target: T1, Thymidylate synthase (Lactobacillus casei) (UniProt P00469); test: Compound was tested for its inhibition against Thymidylate synthase up to concentration of 1 mM; IA means inactive; conditions: Lacticaseibacillus casei
T1 sequence (whole entry): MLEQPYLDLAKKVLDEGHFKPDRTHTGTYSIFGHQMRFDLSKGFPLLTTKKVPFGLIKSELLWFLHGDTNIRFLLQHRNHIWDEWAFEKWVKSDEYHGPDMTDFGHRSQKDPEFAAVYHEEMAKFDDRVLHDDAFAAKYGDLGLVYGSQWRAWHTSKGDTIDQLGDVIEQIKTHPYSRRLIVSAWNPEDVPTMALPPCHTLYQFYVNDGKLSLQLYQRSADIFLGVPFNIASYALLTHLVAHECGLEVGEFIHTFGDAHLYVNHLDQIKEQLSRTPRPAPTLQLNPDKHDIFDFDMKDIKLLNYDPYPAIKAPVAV

[4] = (§1) Half-life for hydrolysis to 5-fluoro-2'-deoxyuridine-5'-phosphate at 100 degree Centigrade; type: ADME
[5] = Half-life for hydrolysis to 5-fluoro-2'-deoxyuridine-5'-phosphate at […] Centigrade; type: ADME
L5178Y [6] = test: as §1; type: functional; conditions: Mus musculus
[7] = Half-life for hydrolysis to 5-fluoro-2'-deoxyuridine-5'-phosphate at 65 degree Centigrade; type: ADME

| Compound | IC50 (L5178Y [1]) [nM] | inhibition at 0.01 µM (L5178Y [2]) [%] | inhibition [3] | half-life [4] [h] | half-life [5] [h] | T1/2 (L5178Y [6]) [h] | half-life [7] [h] |
| --- | --- | --- | --- | --- | --- | --- | --- |
| O=c1[nH]c(=O)n([C@H]2C[C@H](O)[C@@H](COP(=O)(O)O)O2)cc1F [5-FLUORODEOXYURIDYLATE] | 1.4 | 67 | inactive | – | – | – | – |
| O=c1[nH]c(=O)n([C@H]2C[C@H](O)[C@@H](CO)O2)cc1F [FLOXURIDINE] | 0.76 | – | inactive | – | – | – | – |
| NP(N)(=O)OC[C@H]1O[C@@H](n2cc(F)c(=O)[nH]c2=O)C[C@@H]1O | 2 | 45 | inactive | 3.9 | 0.25 | – | – |
| O=c1[nH]c(=O)n([C@H]2C[C@H](O)[C@@H](COP(=O)(N3CCOCC3)N3CCOCC3)O2)cc1F | – | 11 | inactive | – | – | 100 | 240 |

— ChEMBL document CHEMBL1121560, “Synthesis and biological activity of 5-fluoro-2'-deoxyuridine 5'-phosphorodiamidates” (J Med Chem, 1980)
